Laboratory results published in ChEMBL document CHEMBL1149160, “Bisguanidine, bis(2-aminoimidazoline), and polyamine derivatives as potent and selective chemotherapeutic agents against Trypanosoma brucei rhodesiense. Synthesis and in vitro evaluation” (J Med Chem, 2004).
pIC50: −log10 of the molar value.

Key:
[1] = test system: Trypanosoma brucei rhodesiense; experiment: In vitro antitrypanosomal activity against Trypanosoma brucei rhodesiense; format: functional, organism-based
[2] = test system: L6; experiment: Ratio of cytotoxicity against L6 cells to that of antitrypanosomal activity against Trypanosoma brucei rhodesiense; format: functional
[3] = test system: L6; experiment: Cytotoxic activity against rat L6 cells; format: cell-based

Row | pIC50 [1] | Structure (SMILES) | Ratio [2] | pIC50 [3]
1 | 5.35 | N=C(N)c1cccc(/C=N/N=C(\N)N/N=C/c2cccc(C(=N)N)c2)c1 | – | –
2 | – | c1cc(Nc2ccc(NC3=NCCN3)cc2)ccc1NC1=NCCN1 | 3072 | –
3 | 7.66 | N=C(N)Nc1ccc(Nc2ccc(NC(=N)N)cc2)cc1 | 29.5 | –
4 | – | CCOC(CNC(=N)Nc1ccc(Cc2ccc(NC(=N)NCC(OCC)OCC)cc2)cc1)OCC | >554 | –
5 | 5.41 | O=C(NCCCN1CCN(C(=O)OCc2ccccc2)C1)OCc1ccccc1 | 27 | 3.97
6 | 7.31 | N=C(N)NCCCCCCCCCNC(=N)N | >5294 | < 3.58
7 | 5.41 | O=C(NCCCN(CCNC(=O)OCc1ccccc1)CCc1ccccc1)OCc1ccccc1 | 6.4 | 4.61
8 | 4.50 | CC(C)(C)OC(=O)/N=C(/C=C(/O)OC(C)(C)C)Nc1ccc(Cc2ccc(N/C(=N\C(=O)OC(C)(C)C)NC(=O)OC(C)(C)C)cc2)cc1 | – | –
9 | 4.33 | CN(CCCNC1=NCCN1)CCNC1=NCCN1 | – | –
10 | 6.34 | C(CCCCNC1=NCCN1)CCCNC1=NCCN1 | 9.4 | 5.38
11 | 4.56 | c1ccc(CCN(CCCNC2=NCCN2)CCNC2=NCCN2)cc1 | – | –
12 | 4.61 | CC(C)(C)OC(=O)/N=C(\NC(=O)OC(C)(C)C)Nc1ccc(S(=O)(=O)c2ccc(N/C(=N/C(=O)OC(C)(C)C)NC(=O)OC(C)(C)C)cc2)cc1 | – | –
13 | 5.14 | CC(C)(C)OC(=O)N1CCN(C(=O)OC(C)(C)C)C1=Nc1ccc(C(=O)c2ccc(N=C3N(C(=O)OC(C)(C)C)CCN3C(=O)OC(C)(C)C)cc2)cc1 | – | –
14 | – | N=C(N)Nc1ccc(C(=O)c2ccc(NC(=N)N)cc2)cc1 | 13.1 | –
15 | 6.33 | CC(C)(C)OC(=O)/N=C(/C=C(/O)OC(C)(C)C)Nc1ccc(Nc2ccc(N/C(=N\C(=O)OC(C)(C)C)NC(=O)OC(C)(C)C)cc2)cc1 | 7.9 | 5.43
16 | 6.01 | C1CCC(/N=C(\NC2CCCCC2)N(CCCN=C(NC2CCCCC2)NC2CCCCC2)CCN=C(NC2CCCCC2)NC2CCCCC2)CC1 | >82 | < 4.08
17 | 4.86 | CC(C)(C)OC(=O)/N=C(\NC(=O)OC(C)(C)C)Nc1cccc(N2CCN(c3cccc(N/C(=N\C(=O)OC(C)(C)C)NC(=O)OC(C)(C)C)c3)CC2)c1 | – | –
18 | 4.15 | C1CNC(N2CCC(N3CCN(C4=NCCN4)CC3)CC2)=N1 | – | –
19 | – | N=C(N)Nc1ccc(S(=O)(=O)c2ccc(NC(=N)N)cc2)cc1 | >51 | –
20 | – | CCOC(CNC(=N)Nc1ccc(Nc2ccc(NC(=N)NCC(OCC)OCC)cc2)cc1)OCC | >767 | –

Row | pIC50 [1] | Structure (SMILES) | Ratio [2] | pIC50 [3]
21 | 4.94 | CC(C)(C)OC(=O)N1CCN(C(=O)OC(C)(C)C)C1=Nc1ccc(Cc2ccc(N=C3N(C(=O)OC(C)(C)C)CCN3C(=O)OC(C)(C)C)cc2)cc1 | – | –
22 | 4.31 | CCCCCCCCN=C(N)N | – | –
23 | 6.38 | CCCCC[P+](CCCCC)(CCCCC)c1ccc(C(=O)c2ccc([P+](CCCCC)(CCCCC)CCCCC)cc2)cc1.[Br-].[Br-] | 28.5 | 4.93
24 | 7.33 | N=C(N)NCCCCCCCCCCCCNC(=N)N | 13 | 6.20
25 | 6.60 | N=C(N)NCCCCCCCCNC(=N)N | >1100 | < 3.56
26 | – | O=C(c1ccc(NC2=NCCN2)cc1)c1ccc(NC2=NCCN2)cc1 | >104 | –
27 | 4.70 | CCCCCCCCCN=C(N)N | – | –
28 | 3.95 | CCCNCCCNC1=NCCN1 | – | –
29 | 4.79 | N=C(N)NCCNCCNC(=N)N | – | –
30 | 6.57 | N=C(N)Nc1ccc(-c2ccc(NC(=N)N)cc2)cc1 | 172 | 4.33
31 | 4.07 | C1CNC(NCCNCCNC2=NCCN2)=N1 | – | –
32 | 5.85 | c1c[nH]c(Nc2ccc(Nc3ccc(Nc4ncc[nH]4)cc3)cc2)n1 | 80.7 | 3.95
33 | 4.53 | C(CNCCCNC1=NCCN1)CNC1=NCCN1 | – | –
34 | 4.71 | C(CCCNC1=NCCN1)CCNC1=NCCN1 | – | –
35 | 5.51 | CN(CCCNC(=O)OCc1ccccc1)CCNC(=O)OCc1ccccc1 | 41 | 3.89
36 | 4.52 | CC(C)(C)OC(=O)N1CCC(N2CCN(C(=O)OC(C)(C)C)CC2)CC1 | – | –
37 | 4.67 | N=C(N)NCCCNCCNC(=N)N | – | –
38 | 5.09 | N=C(N)NCCCCCCNC(=N)N | >37 | < 3.52
39 | – | c1cc(NC2=NCCN2)ccc1Cc1ccc(NC2=NCCN2)cc1 | 71 | –
40 | – | CC(C)(C)OC(=O)N1CCN(C(=O)OC(C)(C)C)C1=Nc1ccc(Nc2ccc(N=C3N(C(=O)OC(C)(C)C)CCN3C(=O)OC(C)(C)C)cc2)cc1 | 202 | –

Row | pIC50 [1] | Structure (SMILES) | Ratio [2] | pIC50 [3]
41 | 4.59 | O=C(c1ccc(Br)cc1)c1ccc(Br)cc1 | >9.4 | < 3.61
42 | 4.85 | O=C(NCCCN(CCO)CCNC(=O)OCc1ccccc1)OCc1ccccc1 | 8.3 | 3.94
43 | 5.15 | CC(=O)OCCN(CCCNC(=O)OCc1ccccc1)CCNC(=O)OCc1ccccc1 | >26 | < 3.72
44 | 4.21 | CN(CCN)CCCN | – | –
45 | 6.97 | C(CCCCCCNC1=NCCN1)CCCCCNC1=NCCN1 | 22 | 5.63
46 | 6.65 | C(CCCCNC1=NCCN1)CCCCNC1=NCCN1 | 71 | 4.80
47 | 4.24 | C1CC(N2CCNCC2)CCN1 | – | –
48 | 4.67 | N=C(N)NCCCNCCCNC(=N)N | – | –
49 | 4.90 | CC(C)(C)OC(=O)NCC/N=C(\S)N1CCC(N2CCN(/C(S)=N\CCNC(=O)OC(C)(C)C)CC2)CC1 | – | –
50 | 4.76 | NCCCN(CCN)CCc1ccccc1 | 12 | 3.67
51 | – | N=C(N)Nc1ccc(Cc2ccc(NC(=N)N)cc2)cc1 | 17.4 | –
52 | 6.00 | O=C(NCCCN(CCNC(=O)OCc1ccccc1)CCc1c[nH]c2ccccc12)OCc1ccccc1 | 7.8 | 5.11
53 | – | CC(C)(C)OC(=O)N1CCN(C(=O)OC(C)(C)C)C1=Nc1ccc(S(=O)(=O)c2ccc(N=C3N(C(=O)OC(C)(C)C)CCN3C(=O)OC(C)(C)C)cc2)cc1 | 21.7 | –
54 | 5.35 | N=C(N)NCCCN(CCNC(=N)N)CCc1ccccc1 | >43 | < 3.70
55 | 5.32 | O=C(CN1CCCN(C(=O)OCc2ccccc2)C1)OCc1ccccc1 | 18.6 | 4.05
56 | 4.16 | C(CNCCNC1=NCCN1)CNC1=NCCN1 | – | –
57 | 6.93 | c1cc(-c2ccc(NC3=NCCN3)cc2)ccc1NC1=NCCN1 | 881 | 3.98
58 | 5.62 | C1CCC(NC(=NCCCNCCN=C(NC2CCCCC2)NC2CCCCC2)NC2CCCCC2)CC1 | – | –
59 | 8.05 | N=C(N)c1ccc(/N=N/Nc2ccc(C(=N)N)cc2)cc1 [DIMINAZENE DIACETURATE] | – | –

Row | Structure (SMILES) | pIC50 [1] | Ratio [2] | pIC50 [3]
60 | O=[N+]([O-])c1ccc(-c2ccc([N+](=O)[O-])cc2)cc1 | 4.38 | – | –
61 | NCCCN(CCN)CCc1c[nH]c2ccccc12 | 4.86 | – | –
62 | Nc1ccc(-c2ccc(N)cc2)cc1 [BENZIDINE] | 5.85 | >152 | < 3.66
63 | CCCCCCCCCCCCNC(=N)N [DODINE] | 4.96 | 1.8 | 4.71
64 | Nc1nc(N)nc(Nc2ccc([As]3SCC(CO)S3)cc2)n1 (stereo unspecified) [MELARSOPROL] | 5.26 | 3456 | –
